How the values were obtained:
Phlebotomus dubosqui = assay: Dual-choice bioassay, treated vs control chamber; type: in vivo; details: 1,200 mg DEET
Text: Through a series of dual-choice bioassays, a new combination of plant volatile semiochemicals was identified, which acts as a powerful repellent against two vector species of sand flies, Lutzomyia longipalpis and Phlebotomus dubosqui (vectors of leishmaniasis). […] Female sand flies repelled from host environments will be less likely to obtain a blood meal, reducing egg production, while aggregation by males, which typically occurs near hosts, will also be impeded by the presence of a repellent. Both of these interventions will lead to a decrease in reproductive success within the treated area, and over time, a reduction in sand fly population size.
Vectrax can also be deployed as a vehicle for the controlled release of repellent plant volatiles, to manage sand fly populations. […] This plant-based repellent formulation could reduce sand fly populations in a number of ways. Female sand flies repelled from host environments by Vectrax will be less likely to obtain a blood meal, reducing egg production, while lek formation by males, which typically occurs near hosts, will also be impeded by the presence of a repellent. Both of these interventions will lead to a decrease in reproductive success within the treated area, and over time, a reduction in sand fly population size.

mosquitoes = assay: Laboratory and mesocosm trials of Vectrax bait blended with insecticide; type: in vivo
Text: Vectrax Bait Stations. To apply Vectrax within bait stations, the formulation—again, previously shaken or stirred—is loaded into a reservoir that provides the target insects with easy access to the attractant material, similar to a hummingbird feeder. […] In order to maintain maximum A&K efficiency, the toxicant component should be blended into the Vectrax attractant formulation as close to the time of application as possible. The attractant or A&K formulation may be loaded into the bait station in amounts ranging from a few grams to several liters, depending on the desired field life. If desired, a sponge or other absorbent material may be applied with the formulation, to facilitate landing by the mosquitoes. As with Vectrax-baited traps, Vectrax bait stations may be deployed singly, as a means to divert or attract and kill mosquitoes in sensitive environments (i.e., rural residences, backyards, recreational activity sites), or as part of a mosquito management strategy, placed at whatever locations and whatever density is thought to be required.

| SMILES | flies selecting the untreated over the treated chamber (repellency) (Phlebotomus dubosqui) | efficacy as insecticide blended into Vectrax attract and kill bait (mosquitoes) |
| --- | --- | --- |
| CCN(CC)C(=O)c1cccc(C)c1 [DEET, N, N-diethyl-meta-toluamide] | 79% | – |
| CNC(=O)c1cc(C#N)cc(C)c1NC(=O)c1cc(Br)nn1-c1ncccc1Cl [cyazypyr] | – | quite effective |
